The text below walks through data of publication PMC9841585 (ACS Medicinal Chemistry Letters, 2022).

Each structure is given as a SMILES string.

This data set relates to CHO cells. Nature of the data set: Biotium XTT cell viability kit. The class given is cell-based, Chinese hamster. The following applies: 24 hours, medium with 5% serum. For orientation: Formazan colour is commonly taken as a measure of viable cells.

Turning to `Cc1nc(N2CCN(C(=O)c3ccco3)CC2)c2c3c(sc2n1)CC(C)(C)CC3` [Compound 24], the “cytotoxicity (no cytotoxicity up to)” value is over 10 µM.
